Consider 77 molecules from the PolyMetriX glass transition set.

Structures are written as SMILES.

`*=Nc1ccc(Oc2ccc(C(c3ccc(Oc4ccc(/N=C5/OC(=O)c6cc7c(cc65)C(=*)OC7=O)cc4)cc3)(C(F)(F)F)C(F)(F)F)cc2)cc1` (repeat unit) gave a glass transition temperature of 287.00 °C.

In the case of `*=Nc1cccc(/N=C(\c2ccccc2)c2ccc(C(=*)c3ccccc3)cc2)c1` (repeat unit), the glass transition temperature amounted to 179.00 °C.

As for `*C#Cc1cc(C(C)(C)C)cc2c3cc(C(C)(C)C)cc(*)c3n(CCCCCCCCCCCCCCCC)c12` (repeat unit), the glass transition temperature came to 80.00 °C.

As for `*C(=O)c1ccc2c(c1)/C(=N\c1ccc(Oc3cccc(/N=C4/OC(=O)c5ccc(*)cc54)c3)cc1)OC2=O` (repeat unit), the glass transition temperature is 253.00 °C.

Molecule `*CC(*)(CC(=O)OC)C(=O)OC12CC3CC(C)(CC(C)(C3)C1)C2` (repeat unit) displayed a glass transition temperature of 144.00 °C.

`*CC(*)(CC(=O)OC1CCCCCCC1)C(=O)OC1CCCCCCC1` (repeat unit) registered a glass transition temperature of 124.00 °C.

For `*CC(*)(CC(=O)OCC(C)C)C(=O)OCC(C)C` (repeat unit), the glass transition temperature was determined as 125.00 °C.

`*CC(*)(CC(=O)OCC)C(=O)O` (repeat unit) showed a glass transition temperature of 135.00 °C.

`*CC(*)(CC(=O)OCCC)C(=O)OCCC` (repeat unit) returned a glass transition temperature of 46.50 °C.

`*CC(*)(CC(=O)OCCCCCCC)C(=O)OCCCCCCC` (repeat unit): the glass transition temperature was -23.00 °C.

As for `*CC(*)(CC(=O)OCCCCCCCCC)C(=O)OCCCCCCCCC` (repeat unit), the glass transition temperature was -13.00 °C.

`*CC(*)(CC(=O)OCCOC)C(=O)OCCOC` (repeat unit) returned a glass transition temperature of 34.00 °C.

As to `*CC(*)(CC(=O)OCCOCCOCCOC)C(=O)OCCOCCOCCOC` (repeat unit), the glass transition temperature was -19.00 °C.

As for `*CC(*)(CC(=O)OCCc1ccccc1)C(=O)OCCc1ccccc1` (repeat unit), the glass transition temperature came out at 45.00 °C.

Take `*CC(*)(CC(=O)Oc1ccc(OC)cc1)C(=O)Oc1ccc(OC)cc1` (repeat unit): the glass transition temperature was 119.50 °C.

As for `*CC(*)(CF)C(=O)OCC` (repeat unit), the glass transition temperature was found to be 43.00 °C.

`*CC(*)(Cl)C(=O)OCCC` (repeat unit) had a glass transition temperature of 66.00 °C.

In turn, `*CC(*)(Cl)C(=O)OCCCCCCOc1ccc(C(=O)Oc2ccc(OCCCC)cc2)cc1` (repeat unit) yielded a glass transition temperature of 112.50 °C.

With `*CC(*)(F)C(=O)OCC(F)(F)C(F)(F)C(F)(F)C(F)(F)F` (repeat unit), the glass transition temperature stood at 63.00 °C.

Molecule `*CC(*)(F)C(=O)OCC(F)(F)C(F)(F)F` (repeat unit) displayed a glass transition temperature of 99.00 °C.

On to `*CC(*)(F)C(=O)OCCC(F)(F)C(F)(F)C(F)(F)C(F)(F)F` (repeat unit), for which the glass transition temperature came to 6.00 °C.

On to `*CC(*)(F)C(F)(F)F` (repeat unit), for which the glass transition temperature was 49.00 °C.

The molecule `*CC(*)C(=O)N1CC[NH+](CC)CC1` (repeat unit) had a glass transition temperature of 72.50 °C.

With `*CC(*)C(=O)NCCCCCC(=O)O` (repeat unit), the glass transition temperature worked out at 68.00 °C.

`*CC(*)C(=O)NCCC[N+](C)(C)C` (repeat unit) had a glass transition temperature of 57.00 °C.

`*CC(*)C(=O)NCCC[N+](C)(C)CCCS(=O)(=O)O` (repeat unit) showed a glass transition temperature of 141.50 °C.

The molecule `*CC(*)C(=O)Nc1ccccc1Cl` (repeat unit) had a glass transition temperature of 63.00 °C.

For the molecule `*CC(*)C(=O)OC(C)C` (repeat unit), the glass transition temperature was -5.00 °C.

The molecule `*CC(*)C(=O)OC(CC)CC` (repeat unit) yielded a glass transition temperature of -6.00 °C.

The molecule `*CC(*)C(=O)OC12CC3CC(CC(C3)C1)C2` (repeat unit) gave a glass transition temperature of 183.00 °C.

`*CC(*)C(=O)OC1CC(C)CC(C)(C)C1` (repeat unit) returned a glass transition temperature of 15.00 °C.

As for `*CC(*)C(=O)OC1CCCCCCCCCCC1` (repeat unit), the glass transition temperature was 37.00 °C.

Regarding `*CC(*)C(=O)OCC(F)(F)C(F)(F)C(F)(F)C(F)(F)C(F)(F)F` (repeat unit), the glass transition temperature is -39.00 °C.

For `*CC(*)C(=O)OCC(F)(F)C(F)(F)C(F)(F)F` (repeat unit), the glass transition temperature is -30.00 °C.

`*CC(*)C(=O)OCC(F)(F)C(F)(F)OC(F)(F)C(F)(F)F` (repeat unit) displayed a glass transition temperature of -49.00 °C.

The molecule `*CC(*)C(=O)OCC(F)(F)F` (repeat unit) showed a glass transition temperature of 3.10 °C.

Turning to `*CC(*)C(=O)OCC1(CC)COC(c2ccccc2)OC1` (repeat unit), the glass transition temperature came out at 50.00 °C.

`*CC(*)C(=O)OCCC#N` (repeat unit) displayed a glass transition temperature of 4.00 °C.

In turn, `*CC(*)C(=O)OCCC(C)OC` (repeat unit) displayed a glass transition temperature of -56.00 °C.

Turning to `*CC(*)C(=O)OCCC(F)(F)C(F)(F)C(F)(F)C(F)(F)C(F)(F)C(F)(F)C(F)(F)C(F)(F)F` (repeat unit), the glass transition temperature stood at 52.00 °C.

Regarding `*CC(*)C(=O)OCCCCCC` (repeat unit), the glass transition temperature was -57.00 °C.

For `*CC(*)C(=O)OCCCCCCC` (repeat unit), the glass transition temperature was -60.00 °C.

The molecule `*CC(*)C(=O)OCCCCCCCCCCCOc1ccc(C(=O)Oc2ccc(-c3ccc(OC(C)CCCCCC)cc3)cc2)cc1` (repeat unit) came in with a glass transition temperature of 50.00 °C.

With `*CC(*)C(=O)OCCCCCCCOC(=O)c1ccc(OC(=O)c2ccc(C#N)cc2)cc1` (repeat unit), the glass transition temperature is 20.00 °C.

Consider `*CC(*)C(=O)OCCCCCOC(=O)c1ccc(OC(=O)c2ccc(C#N)cc2)cc1` (repeat unit), for which the glass transition temperature amounted to 30.00 °C.

Molecule `*CC(*)C(=O)OCCCCOC(=O)c1ccc(OC(=O)c2ccc(C#N)cc2)cc1` (repeat unit) came in with a glass transition temperature of 40.00 °C.

In turn, `*CC(*)C(=O)OCCCCOc1ccc(/N=N/c2ccc([N+](=O)[O-])cc2)cc1` (repeat unit) returned a glass transition temperature of 36.70 °C.

The molecule `*CC(*)C(=O)OCCCOCC` (repeat unit) returned a glass transition temperature of -61.50 °C.

`*CC(*)C(=O)OCCCOc1ccc(-c2ccc(C#N)cc2)cc1` (repeat unit) had a glass transition temperature of 54.2 °C.

Regarding `*CC(*)C(=O)OCCCOc1ccc(/N=N/c2ccc([N+](=O)[O-])cc2)cc1` (repeat unit), the glass transition temperature was 45.60 °C.

`*CC(*)C(=O)OCCCSC` (repeat unit) registered a glass transition temperature of -65.00 °C.

`*CC(*)C(=O)OCCCn1c2ccccc2c2ccccc21` (repeat unit) came in with a glass transition temperature of 83.00 °C.

In the case of `*CC(*)C(=O)OCCN(C)C` (repeat unit), the glass transition temperature was -39.00 °C.

On to `*CC(*)C(=O)OCCO` (repeat unit), for which the glass transition temperature was found to be 20.70 °C.

The molecule `*CC(*)C(=O)OCCOC(=O)c1cc([N+](=O)[O-])cc([N+](=O)[O-])c1` (repeat unit) gave a glass transition temperature of 60.80 °C.

Consider `*CC(*)C(=O)OCCOCC` (repeat unit), for which the glass transition temperature is -50.00 °C.

For `*CC(*)C(=O)OCCOCC1(CC)COC1` (repeat unit), the glass transition temperature was -16.00 °C.

In turn, `*CC(*)C(=O)OCCOCCOC(F)(F)C(F)F` (repeat unit) yielded a glass transition temperature of -40.00 °C.

Take `*CC(*)C(=O)OCCOc1ccc(C(=O)Oc2ccc(OC(=O)c3ccc(OCCCCC)cc3)cc2)cc1` (repeat unit): the glass transition temperature is 46.00 °C.

The molecule `*CC(*)C(=O)OCCOc1ccc(C(C)(C)c2ccc(OCCO)cc2)cc1` (repeat unit) had a glass transition temperature of 22.00 °C.

`*CC(*)C(=O)OCCSC` (repeat unit) yielded a glass transition temperature of -60.00 °C.

`*CC(*)C(=O)OCCSCC` (repeat unit) gave a glass transition temperature of -71.00 °C.

Turning to `*CC(*)C(=O)OCCc1ccccc1` (repeat unit), the glass transition temperature was -3.00 °C.

In turn, `*CC(*)C(=O)OCc1c(Br)c(Br)c(Br)c(Br)c1Br` (repeat unit) came in with a glass transition temperature of 181.00 °C.

In turn, `*CC(*)C(=O)Oc1c(Cl)c(Cl)c(Cl)c(Cl)c1Cl` (repeat unit) came in with a glass transition temperature of 145.00 °C.

`*CC(*)C(=O)Oc1c(F)c(F)c(F)c(F)c1F` (repeat unit) yielded a glass transition temperature of 64.00 °C.

With `*CC(*)C(=O)Oc1cc(C)cc(C)c1` (repeat unit), the glass transition temperature was 54.00 °C.

On to `*CC(*)C(=O)Oc1ccc(C(=O)OCC)cc1` (repeat unit), for which the glass transition temperature amounted to 37.00 °C.

`*CC(*)C(=O)Oc1ccc(C(=O)OCCCC)cc1` (repeat unit) returned a glass transition temperature of 13.00 °C.

`*CC(*)C(=O)Oc1ccc(C(=O)OCc2ccccc2)cc1` (repeat unit) registered a glass transition temperature of 16.2 °C.

Turning to `*CC(*)C(=O)Oc1ccc(Cl)cc1` (repeat unit), the glass transition temperature came to 330.00 °C.

Molecule `*CC(*)C(=O)Oc1ccc([N+](=O)[O-])cc1` (repeat unit) had a glass transition temperature of 73.30 °C.

`*OC(C)C#CC#CC(C)OC(=O)c1ccc(C(*)=O)cc1` (repeat unit) yielded a glass transition temperature of 133.00 °C.

`*O[Si](C)(C)C#C[Si](C)(C)C#C[Si](C)(C)C#C[Si](C)(C)C#C[Si](C)(C)C#C[Si](*)(C)C` (repeat unit) came in with a glass transition temperature of -16.10 °C.

`*O[Si](C)(C)C#C[Si](C)(C)C#C[Si](C)(C)C#C[Si](C)(C)C#C[Si](C)(C)C#C[Si](C)(C)C#C[Si](*)(C)C` (repeat unit) came in with a glass transition temperature of -12.60 °C.

For the molecule `*Oc1ccc(/N=C(\C)c2ccc(Oc3ccc(C(C)(C)c4ccc(Oc5ccc(/C(C)=N/c6ccc(*)cc6)cc5)cc4)cc3)cc2)cc1` (repeat unit), the glass transition temperature is 141.00 °C.

As to `*Oc1ccc(/N=C(\c2ccccc2)c2ccc(Oc3ccc(-c4ccc(Oc5ccc(/C(=N/c6ccc(*)cc6)c6ccccc6)cc5)cc4)cc3)cc2)cc1` (repeat unit), the glass transition temperature came out at 174.00 °C.
